GR value data for six cell lines are collected here from the supplement of paper PMC9663587.

Compound in the first test: C=CC(=O)Nc1ccc(C(=O)Nc2[nH]nc3c2CN(C(=O)N[C@H](CN(C)C)c2ccccc2)C3(C)C)cc1 [YKL-5-124]
The experiment in a line: GR value, 72 h; higher = faster growth (1 = untreated, <0 = killing).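 Note: breast cancer and non-malignant breast epithelial lines, nine half-log doses, viable cells counted by Hoechst and LIVE/DEAD dye imaging versus time-zero plates and DMSO controls.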 The following applies: 0.001 µM.
With HCC1419, the GR value amounted to 0.259 GR.

For the cell line HCC1569, the GR value amounted to 0.373 GR.

For HCC1806, the GR value was found to be 0.386 GR.

Take HCC1937: the GR value was determined as 0.676 GR.

For the cell line HCC1954, the GR value is 0.224 GR.

For the cell line HS578T, the GR value turned out to be 0.455 GR.

Still in this test, the particulars now being: 0.003162 µM.
With HCC1419, the GR value amounted to 0.184 GR.

For the cell line HCC1569, the GR value worked out at 0.541 GR.

For HCC1806, the GR value was determined as 0.232 GR.

As for HCC1937, the GR value worked out at 0.451 GR.

HCC1954: the GR value was 0.154 GR.

On to HS578T, for which the GR value stood at 0.364 GR.

Still in this test, the particulars now being: 0.01 µM.
For the cell line HCC1419, the GR value stood at 0.0618 GR.

As to HCC1569, the GR value was found to be 0.302 GR.

On to HCC1806, for which the GR value stood at 0.105 GR.

In the case of HCC1937, the GR value turned out to be 0.249 GR.

As for HCC1954, the GR value is 0.0574 GR.

With HS578T, the GR value turned out to be 0.311 GR.

Staying with this test, now noted: 0.03162 µM.
For the cell line HCC1419, the GR value came to 0.124 GR.

On to HCC1569, for which the GR value was 0.277 GR.

With HCC1806, the GR value turned out to be 0.0295 GR.

On to HCC1937, for which the GR value turned out to be 0.165 GR.

As for HCC1954, the GR value came to 0.0823 GR.

With HS578T, the GR value was 0.239 GR.

The same test, now with this note: 0.1 µM.
Take HCC1419: the GR value is -0.0246 GR.

For HCC1569, the GR value turned out to be 0.443 GR.

On to HCC1806, for which the GR value was -0.0411 GR.

For HCC1937, the GR value was 0.0669 GR.

With HCC1954, the GR value was -0.0214 GR.

As to HS578T, the GR value is 0.242 GR.

The same test, now with this note: 0.3162 µM.
Regarding HCC1419, the GR value is -0.0463 GR.

On to HCC1569, for which the GR value is 0.124 GR.

As for HCC1806, the GR value was -0.075 GR.

Consider HCC1937, for which the GR value is 0.0473 GR.

On to HCC1954, for which the GR value was determined as 0.0013 GR.

For the cell line HS578T, the GR value stood at 0.195 GR.

Still in this test, the particulars now being: 1 µM.
Turning to HCC1419, the GR value was -0.0452 GR.

With HCC1569, the GR value was found to be 0.175 GR.

For the cell line HCC1806, the GR value is -0.155 GR.

As to HCC1937, the GR value was -0.0273 GR.

As to HCC1954, the GR value was -0.0774 GR.

For HS578T, the GR value came out at 0.167 GR.

Still in this test, the particulars now being: 3.162 µM.
Regarding HCC1419, the GR value was -0.184 GR.

Turning to HCC1569, the GR value came to 0.0783 GR.

Take HCC1806: the GR value was -0.19 GR.

For HCC1937, the GR value is -0.052 GR.

As for HCC1954, the GR value was -0.0189 GR.

As to HS578T, the GR value was 0.0237 GR.

Staying with this test, now noted: 10 µM.
Regarding HCC1419, the GR value is -0.379 GR.

On to HCC1569, for which the GR value was -0.266 GR.

As for HCC1806, the GR value was -0.466 GR.

HCC1937: the GR value was -0.196 GR.

HCC1954: the GR value is -0.143 GR.

Regarding HS578T, the GR value is -0.462 GR.

Compound in a further test: CN1CC[C@H](c2c(O)cc(O)c3c(=O)cc(-c4ccccc4Cl)oc23)[C@H](O)C1 [Flavopiridol]
Described as above. The following applies: 0.0001 µM.
Regarding HCC1419, the GR value stood at 1.06 GR.

For HCC1569, the GR value is 1.24 GR.

On to HCC1806, for which the GR value was 0.956 GR.

On to HCC1937, for which the GR value stood at 1.08 GR.

For the cell line HCC1954, the GR value came to 1.01 GR.

HS578T: the GR value was 1 GR.

The same test, now with this note: 0.0003162 µM.
Regarding HCC1419, the GR value worked out at 0.994 GR.

For the cell line HCC1569, the GR value is 1.13 GR.

For HCC1806, the GR value was 1.03 GR.

As for HCC1937, the GR value came out at 1.02 GR.

HCC1954: the GR value is 0.967 GR.

Regarding HS578T, the GR value was determined as 1.01 GR.

The test is the same for the next values; noted with them: 0.001 µM.
As to HCC1419, the GR value was determined as 0.974 GR.

Take HCC1569: the GR value turned out to be 0.828 GR.

Turning to HCC1806, the GR value came out at 1.04 GR.

Turning to HCC1937, the GR value is 0.946 GR.

As to HCC1954, the GR value was determined as 0.962 GR.

Consider HS578T, for which the GR value stood at 0.977 GR.

Still in this test, the particulars now being: 0.003162 µM.
As for HCC1419, the GR value was 0.95 GR.

For HCC1569, the GR value turned out to be 1.19 GR.

On to HCC1806, for which the GR value was determined as 0.878 GR.

For the cell line HCC1937, the GR value came out at 1.01 GR.

For the cell line HCC1954, the GR value was found to be 0.996 GR.

Consider HS578T, for which the GR value was 0.969 GR.

Still in this test, the particulars now being: 0.01 µM.
As for HCC1419, the GR value is 0.932 GR.

As to HCC1569, the GR value amounted to 1.02 GR.

For the cell line HCC1806, the GR value was 1.03 GR.

Take HCC1937: the GR value is 0.918 GR.

Turning to HCC1954, the GR value came to 0.907 GR.

As for HS578T, the GR value was determined as 0.95 GR.

The same test, now with this note: 0.03162 µM.
For the cell line HCC1419, the GR value amounted to 0.894 GR.

Consider HCC1569, for which the GR value was determined as 0.846 GR.

Consider HCC1806, for which the GR value stood at 0.926 GR.

As to HCC1937, the GR value came to 1.01 GR.

On to HCC1954, for which the GR value was found to be 0.928 GR.

Consider HS578T, for which the GR value amounted to 0.923 GR.

The test is the same for the next values; noted with them: 0.1 µM.
Take HCC1419: the GR value came out at 0.658 GR.

With HCC1569, the GR value came to 0.422 GR.

For HCC1806, the GR value was determined as 0.659 GR.

As for HCC1937, the GR value came to 0.691 GR.

Regarding HCC1954, the GR value was 0.613 GR.

Regarding HS578T, the GR value was determined as 0.711 GR.

Still in this test, the particulars now being: 0.3162 µM.
For HCC1419, the GR value stood at 0.396 GR.

As to HCC1569, the GR value amounted to 0.0517 GR.

HCC1806: the GR value is 0.199 GR.

HCC1937: the GR value was 0.19 GR.

In the case of HCC1954, the GR value came out at 0.0144 GR.

With HS578T, the GR value turned out to be 0.107 GR.

Staying with this test, now noted: 1 µM.
For the cell line HCC1419, the GR value was -0.261 GR.

With HCC1569, the GR value was -0.284 GR.

Turning to HCC1806, the GR value was -0.565 GR.

As to HCC1937, the GR value was -0.211 GR.

As to HCC1954, the GR value is -0.52 GR.

Consider HS578T, for which the GR value is -0.265 GR.

Compound in a further test: CC(=O)c1c(C)c2cnc(Nc3ccc(N4CCN(CCOCCOCCOCCNC(=O)COc5cccc6c5C(=O)N(C5CCC(=O)NC5=O)C6=O)CC4)cn3)nc2n(C2CCCC2)c1=O [BSJ-03-123]
The description is as above. The following applies: 0.001 µM.
Regarding HCC1419, the GR value was found to be 0.753 GR.

As to HCC1569, the GR value was 1.01 GR.

In the case of HCC1806, the GR value came out at 1 GR.

In the case of HCC1937, the GR value amounted to 1.11 GR.

Consider HCC1954, for which the GR value was determined as 0.886 GR.

As for HS578T, the GR value was found to be 0.971 GR.

The same test, now with this note: 0.003162 µM.
With HCC1419, the GR value amounted to 0.75 GR.

In the case of HCC1569, the GR value is 0.944 GR.

For the cell line HCC1806, the GR value stood at 0.98 GR.

For HCC1937, the GR value was 1.04 GR.

Regarding HCC1954, the GR value was 0.859 GR.

HS578T: the GR value amounted to 0.905 GR.

Staying with this test, now noted: 0.01 µM.
Consider HCC1419, for which the GR value came to 0.669 GR.

HCC1569: the GR value worked out at 1.04 GR.

With HCC1806, the GR value was 0.958 GR.
